{
  "source": "patent US12053511B2",
  "about": "“Cystatin C and Cystatin 9 to treat gut inflammation caused by thermal injury” (priority 2016, dated 2024)",
  "tested_on": "NDM-1 Kp",
  "assay": "LD90 NDM-1 Kp pneumonia murine model, survival",
  "format": "in vivo, Balb/c mice",
  "details": "colistin 20 or 1.25 mg/kg/day, days 4 and 5 PI",
  "source_text": "To establish the optimal CST route, timing, and dosage regimen against MDR NDM-1 Kp-induced pneumonia, Balb/c mice (n=10-20 mice/gp) were infected with an i.n. LD90 and treated at various times and doses as depicted in Table 1. Doses included i.n. and/or i.p. single rCST9, rCSTC or a combination of rCST9 and rCSTC. Mice that were infected with NDM-1 Kp but were not treated served as controls. rCST treatments by routes, doses, or as a combined therapy were studied to select an optimal regimen.\nEvaluate optimal timing and dosage of rCST-9 and/or PEG-rCST9 administration post-infection. Balb/c mice (n=10-20 mice/gp) were intranasally (i.n.) infected with approximately 1.82×10^8 CFU/mouse of Kp 2146 (as established hereinabove) then treated i.n. or i.p. with rCST9, human recombinant cystatin C (rCSTC) or a combination of rCST9 and rCSTC as depicted in Table 1. Kp infected alone served as controls. […] Therefore, as a comparative control to rCST9, the inventors evaluated the effectiveness of rCSTC against pneumonia using the same doses of 50 and/or 500 pg/mouse.\nThe potential for rCST9/rCSTC treatment to extend the period before successful antibiotic intervention was initiated was determined. For these evaluations, suboptimal doses of colistin were used to determine the extent of protection afforded by rCSTs as well as to minimize side effects/toxicity caused by this antibiotic (n=10 mice/gp). Doses, timing, and route of colistin were chosen based on efficacy studies of colistin in a mouse model of severe, established MDR pneumonia or a very low dose of colistin then adjusted to suboptimal levels for this study. LD90 NDM-1 Kp-challenged mice were treated with the rCST9/rCSTC 3 d i.p. treatment and then given 2 doses of colistin at 20 mg/kg/day or 1.25 mg/kg/day on day 4 and 5 PI.\nMouse model of pneumonia and CST treatments. Eight-week old female Balb/c mice weighing between 21 and 24 grams (Jackson Laboratories) were housed in an Association for Assessment and Accreditation for Laboratory Animal Care (AAALAC)-approved housing facility and permitted to adjust to their environment for 7 d prior to procedures, receiving free access to food and water throughout the study. All procedures were approved by the University of Texas Medical Branch IACUC and performed humanely with minimal suffering. […] One hour PI, mice were administered an i.n. dose of rCST9/rCSTC (50 pg of each) and then, this group of mice was given an i.p. injection of rCST9/rCSTC (500 pg of each) 3 d PI. A parallel group of infected mice received only a single i.p. dose of rCST9/rCSTC, PEG-rCST9/rCSTC (500 pg of each), or PEG-rCST9 (500 pg) alone 3 d PI. NDM-1-Kp infected mice alone or uninfected mice served as controls. Survival was observed up to 15 days post treatment. Additional groups (n=4 mice/group) of infected and CST-treated mice were euthanized at selected time points (24 h, 72 h, 5 and/or 10 d PI) to harvest lungs. Additional groups were treated with i.n. rCSTs (50 pg of each) as described above but they were euthanized at 30 min, 1 h and 3 h to collect lungs for the quantification of lipid peroxidase by-product, known as malondialdehyde (MDA), as described below.\nAdditional groups of mice (n=15 mice/group) were treated with the optimal CST treatment regimens of an i.n. dose of rCST9/rCSTC (50 pg of each), followed by an i.p. injection of rCST9/rCSTC (500 pg of each) 3 d PI or the single i.p. dose of rCST9/rCSTC (500 pg of each). At 4 d PI, mice were given 2 separate i.p. injections of colistin (JHP Pharmaceuticals, LLC; colistimethate sodium; 20 mg/kg/mouse or 1.25 mg/kg/day) 8 h apart for 2 d.",
  "data": [
    {"substance": "colistin [reference compound]", "values": [
      {"measurement": "survival protection compared to rCST monotherapy", "result": "neither of the antibiotic doses surpassed protection afforded by the rCST monotherapy"}
    ]}
  ]
}
